Data set [1] has as its target T1, UGT1A1 (Homo sapiens, UniProt P22309).
T1 construct: from tissue; host or cells: human liver microsomes
T1 sequence (P22309 26-533): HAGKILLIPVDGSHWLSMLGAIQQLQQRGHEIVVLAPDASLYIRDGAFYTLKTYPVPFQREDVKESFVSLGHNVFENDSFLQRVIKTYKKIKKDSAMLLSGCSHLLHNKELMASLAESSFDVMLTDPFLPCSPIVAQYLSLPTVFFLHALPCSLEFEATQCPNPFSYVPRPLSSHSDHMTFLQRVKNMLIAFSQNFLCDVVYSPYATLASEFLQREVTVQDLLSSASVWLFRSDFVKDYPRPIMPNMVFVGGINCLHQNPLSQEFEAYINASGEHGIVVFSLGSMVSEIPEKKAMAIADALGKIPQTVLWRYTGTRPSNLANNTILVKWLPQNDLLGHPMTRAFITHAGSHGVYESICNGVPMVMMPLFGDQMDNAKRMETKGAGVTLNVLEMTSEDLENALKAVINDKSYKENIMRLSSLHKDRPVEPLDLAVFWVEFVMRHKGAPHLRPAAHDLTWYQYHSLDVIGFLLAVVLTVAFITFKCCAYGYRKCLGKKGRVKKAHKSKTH
Put plainly: UGT1A1 inhibition in human liver microsomes. In kind it is in vitro ADME. Conditions: value (standard error). (In general: Liver microsomes are a subcellular fraction often used to study metabolism.)

Data set [2] addresses T2, UGT1A1 (Rattus norvegicus, UniProt Q64550).
T2 construct: from tissue; host or cells: rat liver microsomes
T2 sequence (Q64550 30-535): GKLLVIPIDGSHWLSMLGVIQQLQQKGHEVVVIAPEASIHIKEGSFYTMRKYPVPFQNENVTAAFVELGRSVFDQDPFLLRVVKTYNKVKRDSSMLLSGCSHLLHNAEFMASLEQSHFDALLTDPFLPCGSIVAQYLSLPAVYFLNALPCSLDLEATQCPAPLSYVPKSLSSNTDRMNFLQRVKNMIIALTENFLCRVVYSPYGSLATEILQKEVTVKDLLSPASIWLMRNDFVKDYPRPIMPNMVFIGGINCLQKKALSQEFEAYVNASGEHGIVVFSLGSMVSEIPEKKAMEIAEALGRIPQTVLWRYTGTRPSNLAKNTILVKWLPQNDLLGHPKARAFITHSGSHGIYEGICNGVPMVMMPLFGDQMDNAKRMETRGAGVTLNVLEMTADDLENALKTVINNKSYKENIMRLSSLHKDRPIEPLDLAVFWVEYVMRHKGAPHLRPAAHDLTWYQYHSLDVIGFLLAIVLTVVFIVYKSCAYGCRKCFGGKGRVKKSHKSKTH
The data set can be described thus: UGT1A1 inhibition in rat liver microsomes. Type of data set: in vitro ADME. Conditions: value (standard error).

Data set [3] is described as follows: Plasma pharmacokinetics of gartisertib. In kind it is in vivo, human. Conditions: for clearance: read-out: drug clearance. An excerpt:
The secondary objectives for cohorts A, A2, and B1 were to assess antitumour activity and PK. Endpoints associated with antitumour activity included confirmed best overall response (BOR), according to RECIST v1.1. PK endpoints included PK parameter estimates, derived from plasma concentration-time data. Please see the Supplementary Materials for details on further PK endpoints and assessments as well as the PK assessment schedule (Supplementary Table S2).
Categorical variables (such as incidence of a TEAE) were summarised using frequency counts and percentages, along with 2-sided exact Clopper–Pearson 95% confidence intervals (CIs). TEAEs observed were summarised by System Organ Class and Preferred Term according to the Medical Dictionary for Regulatory Activities (versions 23.0 and 24.0). Standard non-compartmental methods were used to determine PK parameters.
Blood samples were collected according to the Schedule of Assessments in order to measure gartisertib (and metabolites where appropriate) plasma concentrations. PK parameters included maximum observed plasma concentration (Cmax), time to reach maximum observed plasma concentration (Tmax), terminal half-life, area under the concentration–time curve (AUC) from time zero extrapolated to infinity, apparent oral clearance, and apparent volume of distribution during the terminal phase as well as Cmax and AUC accumulation ratios. Please see Table S2 for the PK assessment schedule.

A further data set has as its system ɣ-H2AX. The data set can be described thus: ɣ-H2AX in ex vivo-stimulated CD45+ lymphocytes. On the set-up: species or system human. Conditions: 350 mg QD, n = 3, highest tested dose; 3 h post first dose. An excerpt: Exploratory objectives were to assess ATR inhibition and DNA damage by measuring phosphorylation of the Ser-139 residue of the histone variant H2AX (ɣ-H2AX) post-treatment in peripheral blood mononuclear cells (cohorts A2 and C), describe the mutational landscape and its relationship to BOR in patients with selected biomarkers (cohort C) and to determine changes in allele frequencies in mutations of interest and their association with clinical benefit (molecular response; cohorts A2 and C). Further details on the definitions of LOF mutations and methods of biomarker collection are described in the Supplementary Materials.
To determine H2AX phosphorylation (ɣ-H2AX) in lymphocytes, 100 µL of whole blood was stimulated with 62 µM 4NQO (4-nitroquinoline N-oxide, Sigma, UK) for 1 hour at 37°C. In parallel, 100 µL of whole blood was incubated with 10% DMSO (dimethyl sulfoxide, Sigma, UK) as an unstimulated control sample. The samples were subsequently treated (for 10 minutes at 37°C) with BD Lyse & Fix Solution (Becton Dickinson, USA) and the whole blood cells were permeabilized with ice-cold methanol (90% final concentration) for 30 minutes on ice. […] Cells were then analyzed using a FacsCanto II (Becton Dickinson, USA) collecting 10,000 events. […]

Like-named read-outs stand apart in the source and are kept apart here. Where only a bound is given, the exact number is not on record here.

The term IC50 denotes the concentration that inhibits the measured activity by half.

For the molecule `Nc1nn2cc(F)cnc2c1C(=O)Nc1cncc(F)c1N1CCC(C(=O)N2CCN(C3COC3)CC2)CC1` [gartisertib, Gartisertib], the IC50 at UGT1A1 [1] is 8.36 µM; against UGT1A1 [2], > 50 µM. For the same molecule, the “accumulation following multiple gartisertib doses” value in data set [3] (cohort A) is “less than 2 fold”. For the same molecule, the “urinary excretion of gartisertib” value in data set [3] (cohort A2) is “minor route of elimination”. Besides, the “time median plasma concentrations remained above the lower limit of quantification (1.00 ng/mL)” value in data set [3] (cohort A2, 250 mg dose) was ≤ 24 h; in data set [3] (cohort A2, doses other than 250 mg), “up to 8 hours”. For the same molecule, the “accumulation compared with day 1” value in data set [3] (cohort A, 450 mg dose) is recorded as “no accumulation”. In addition, in data set [3] (cohort A, 1200 mg dose group), the “accumulation of AUC0-t at day 8 compared with day 1” value was 1.9 fold. Moreover, the “accumulation of Cmax at day 8 compared with day 1” value in data set [3] (cohort A, 1200 mg dose group) is 1.6 fold. In data set [3] (cohort A, 1200 mg group), the “time of peak median plasma gartisertib concentration” value came to 4 hours post dose. For the same molecule, the “time median gartisertib concentrations remained above the lowest level of quantification (1.00 ng/mL)” value in data set [3] (cohort A, 450, 700, 1050 and 1200 mg groups) is given as “up to 24 hours post dose”. The “exposure (Cmax and AUC) versus dose” value in data set [3] (cohorts A, A2, and B1, high variability) is listed as “dose-proportional exposure”. For the same molecule, the clearance is 3450 to 8580 mL/min in data set [3] (human, plasma, oral, cohort A2, day 1) and 3980 to 7070 mL/min in data set [3] (human, plasma, oral, cohort A2, day 8). Further, the half-life in data set [3] (human, plasma, oral, cohorts A, A2, and B1, read-out: half-life (t1/2)) was 2 to 5 h; in data set [3] (human, plasma, oral, cohort A, four highest dose levels, read-out: geometric mean terminal half-life), 2.22 to 4.61 h. For the same molecule, in data set [3] (human, plasma, oral, cohort A, four highest dose levels, read-out: volume of distribution based on the terminal elimination phase following extravascular administration), the Vd lay in the range of 1480 to 4060 L. Further, the “target inhibition of ɣ-H2AX” value in the data set with ɣ-H2AX is on record as “Complete target inhibition”.

For the origin of these results see paper PMC10991509, “A phase I study of ATR inhibitor gartisertib (M4344) as a single agent and in combination with carboplatin in patients with advanced solid tumours” (British Journal of Cancer, 2024).
